{"source": "patent US20190255144A1", "about": "“SPECIFIC OLIGOPEPTIDES AS ANTI-ANGIOGENIC DRUGS” (NEURONAX, priority 2014, published 2019)", "key": {"HUVECs or HBMECs": {"tested_on": "HUVECs or HBMECs", "test": "Proliferation of endothelial cells", "format": "cell-based", "settings": "in vitro"}, "HBMECs": {"tested_on": "HBMECs", "test": "Migration of endothelial cells", "format": "cell-based"}, "[1]": {"tested_on": "chorioallantoic membrane (CAM) vascularization", "test": "Treatments on the chorioallantoic membrane (CAM), fluorescein angiography", "format": "in vivo, chicken embryo", "settings": "impregnated sponge on CAM at ED9; oligopeptide 250 μg/mL (9 hours), VEGF 10 ng/mL; listed as oligopeptide according to the invention", "source_text": "In fact, TSP-1 is known for inducing the apoptosis of endothelial cells. […] It is also a decisive process under certain physiological and pathological conditions (cancers in particular). This mechanism is controlled by numerous factors having either an inhibitor potential or an activator. So as to evaluate the main properties of these in vivo factors, the most common model is the CAM (chorioallantoic membrane) model from the chicken embryo (Ribatti et al., 2000). It offers the advantage of making it possible to test the pro- or anti-angiogenic factors during an active angiogenesis phase between the embryonic stages 4j and 10j. The major effects of the various molecules can therefore be evaluated in vivo. The model of the CAM can also be used in experimental tumor development. The grafting of human cancer cells onto the surface of the CAM is carried out in the 9-day embryonic stage. Three days after the grafting at ED12, the formation of a tumor is visible at the surface of the CAM. The latter can be treated topically during the 48 hours that follow this stage, and the tumors are sampled at ED14j. The fertilized eggs (Haas Poultry Farm, Strasbourg, France) are kept for 24 hours at 18° C. before the incubation is started up. […] The embryonic stages are determined from tables of Hamburger and Hamilton (H and H, 1951). […]"}}, "note": "Entries after “also recorded” stand apart in the source; their conditions may differ.", "data": [{"substance": "—W—S-G-W—S—S—C—S—R—S—C-G- (WSGWSSCSRSCG; Oligopeptide derived from SCO-Spondin) [NX]", "values": [{"measurement": "Proliferation of HUVECs or HBMECs", "setting": "HUVECs or HBMECs", "value": "does not modulate the proliferation"}, {"measurement": "Migration of the HBMECs induced by glioblastoma tumor cells", "setting": "HBMECs; brought into contact with the U87-MG or HBMECs", "value": "inhibits"}, {"measurement": "Migration in the presence of an angiogenic factor", "setting": "HBMECs; in the presence of VEGF or bFGF", "value": "promotes the migration"}, {"measurement": "Vascularization / microvascularization of the CAM (in words)", "setting": "[1]", "value": "inhibition of vascularization; also recorded: comparable to that of the Bevacizumab"}]}]}
